This passage reports Papp results from article PMC7911516, “Investigation of the Factors Responsible for the Poor Oral Bioavailability of Acacetin in Rats: Physicochemical and Biopharmaceutical Aspects” (Pharmaceutics, 2021).

Usually Papp stands for the rate of passage across a membrane or cell layer, normalised by area and donor concentration.

A short description of the data set: Parallel artificial membrane permeability assay (PAMPA). The conditions noted are these: GIT PAMPA Double Sink. The format is in vitro ADME. The protocol:
Simulated intestinal fluid (SIF) was prepared by dissolving 3 mM sodium taurocholate and 0.1% (w/v) pancreatin in phosphate buffer (final pH = 7.0). The solubility of acacetin was measured by adding excessive amounts of acacetin into glass vials containing 1.5 mL of water, pH 7.4 phosphate buffer, SGF, and SIF. […] The samples were centrifuged at 16,000× g for 5 min, and the supernatant was passed through a 0.20-μm syringe filter to remove excess acacetin. Further, the concentration of acacetin in the filtrate was determined using the LC-MS/MS method. […] Finally, the acacetin concentrations in the octanol and water layers were determined using the LC-MS/MS method. […] The PAMPA was conducted using a commercially available PAMPA kit (GIT PAMPA Double Sink; pION Inc., Massachusetts, MA, USA) according to the manufacturer's protocol. The permeability was calculated using pION PAMPA Explorer ver. 3.8 software (pION Inc., Massachusetts, MA, USA).

On to `CNC(=C[N+](=O)[O-])NCCSCc1ccc(CN(C)C)o1` [ranitidine, reference compound], for which the Papp turned out to be 0.411 ×10⁻⁶ cm/s.
